Test results published in ChEMBL document CHEMBL5126606, “Sodium-Glucose Cotransporter Inhibitors as Antidiabetic Drugs: Current Development and Future Perspectives” (J Med Chem, 2022).
Blank lines part the entries; values can stand above or below the molecule they belong to.

Key:
[1] = target: T1, Sodium/glucose cotransporter 2 (Homo sapiens, UniProt P31639); test: Inhibition of human SGLT2 expressed in CHO cells assessed as inhibition of [14C] labeled AMG accumulation incubated for 15 mins; assay type: cell-based
T1 sequence (P31639 whole entry): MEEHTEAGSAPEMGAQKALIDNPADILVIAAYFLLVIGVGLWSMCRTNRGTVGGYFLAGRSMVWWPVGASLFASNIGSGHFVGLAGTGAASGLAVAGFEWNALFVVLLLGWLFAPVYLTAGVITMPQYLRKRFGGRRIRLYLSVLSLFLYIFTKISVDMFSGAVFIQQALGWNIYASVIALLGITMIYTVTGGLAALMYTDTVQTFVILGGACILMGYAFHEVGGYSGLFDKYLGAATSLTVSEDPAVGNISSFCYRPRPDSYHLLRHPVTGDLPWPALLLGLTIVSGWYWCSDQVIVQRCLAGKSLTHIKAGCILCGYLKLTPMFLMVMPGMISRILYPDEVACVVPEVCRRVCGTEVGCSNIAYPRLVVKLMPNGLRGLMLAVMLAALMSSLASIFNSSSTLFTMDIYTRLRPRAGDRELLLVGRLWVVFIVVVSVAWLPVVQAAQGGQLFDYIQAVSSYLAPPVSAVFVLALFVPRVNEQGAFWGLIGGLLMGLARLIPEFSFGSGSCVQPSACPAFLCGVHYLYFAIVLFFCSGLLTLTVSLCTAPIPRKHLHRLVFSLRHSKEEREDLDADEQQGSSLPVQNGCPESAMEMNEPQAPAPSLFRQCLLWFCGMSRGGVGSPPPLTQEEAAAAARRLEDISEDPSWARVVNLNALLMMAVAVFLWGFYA

[2] = target: T1, Sodium/glucose cotransporter 2; test: Inhibition of human SGLT2
[3] = target: T1, Sodium/glucose cotransporter 2; test: Inhibition of recombinant human SGLT2 expressed in COS-7 cells assessed as inhibition of [14C]AMG uptake; assay type: cell-based
[4] = target: T1, Sodium/glucose cotransporter 2; test: Inhibition of human SGLT2 expressed in xenopus oocytes assessed as inhibition of [14C]AMG uptake; assay type: cell-based, Oocyte
[5] = target: T2, Sodium/glucose cotransporter 1 (Homo sapiens, UniProt P13866); test: Inhibition of human SGLT1 expressed in CHO cells assessed as inhibition of [14C] labeled AMG accumulation incubated for 15 mins; assay type: cell-based
T2 sequence (P13866 whole entry): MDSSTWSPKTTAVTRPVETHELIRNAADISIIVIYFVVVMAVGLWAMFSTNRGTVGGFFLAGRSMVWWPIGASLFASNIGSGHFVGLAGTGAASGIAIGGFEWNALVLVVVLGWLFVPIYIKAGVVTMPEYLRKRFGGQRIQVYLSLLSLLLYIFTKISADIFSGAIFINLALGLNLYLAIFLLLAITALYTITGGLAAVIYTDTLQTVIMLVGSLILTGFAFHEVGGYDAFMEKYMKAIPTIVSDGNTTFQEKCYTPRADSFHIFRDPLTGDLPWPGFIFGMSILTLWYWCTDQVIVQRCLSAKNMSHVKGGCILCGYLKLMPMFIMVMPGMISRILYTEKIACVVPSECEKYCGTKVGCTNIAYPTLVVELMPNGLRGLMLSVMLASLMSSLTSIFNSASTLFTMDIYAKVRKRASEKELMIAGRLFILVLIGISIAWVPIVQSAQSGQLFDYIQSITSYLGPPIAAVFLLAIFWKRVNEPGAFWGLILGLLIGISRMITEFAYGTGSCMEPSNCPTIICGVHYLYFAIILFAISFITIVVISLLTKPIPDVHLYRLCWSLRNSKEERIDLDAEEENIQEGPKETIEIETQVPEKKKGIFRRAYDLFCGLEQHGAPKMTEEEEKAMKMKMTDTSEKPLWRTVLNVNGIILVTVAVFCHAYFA

[6] = target: T1, Sodium/glucose cotransporter 2; test: Inhibition of human SGLT2 expressed in CHO-K1 cells; assay type: cell-based
Homo sapiens = species on record: Homo sapiens; test: Selectivity ratio of IC50 for full length N-terminal HA-tagged human SGLT1 expressed in HEK293 cells to IC50 for full length N-terminal HA-tagged human SGLT2 expressed in HEK293 cells; assay type: cell-based
[7] = Half life in C57BL/6J mouse at 10 mg/kg,po measured upto 24 hrs by LC-MS/MS analysis; assay type: ADME, organism-based; conditions: in vivo
[8] = target: T1, Sodium/glucose cotransporter 2; test: Inhibition of full length N-terminal HA-tagged human SGLT2 expressed in HEK293 cells assessed as inhibition of [14C]AMG uptake; assay type: cell-based
[9] = target: T2, Sodium/glucose cotransporter 1; test: Inhibition of full length N-terminal HA-tagged human SGLT1 expressed in HEK293 cells assessed as inhibition of [14C]AMG uptake; assay type: cell-based
[10] = Oral bioavailability in C57BL/6J mouse at 10 mg/kg measured upto 24 hrs by LC-MS/MS analysis; assay type: ADME, organism-based; conditions: in vivo

EC50 [1]: 286 nM
Structure (SMILES): CO/N=C/[C@H]1O[C@@H](n2cc(Cc3ccc(C4CC4)cc3)c3c(Cl)cccc32)[C@H](O)[C@@H](O)[C@@H]1O

Ki [3]: 13600 nM
Structure (SMILES): Cc1cc(OCCCNCCC(N)=O)ccc1Cc1c(O[C@@H]2O[C@H](CO)[C@@H](O)[C@H](O)[C@H]2O)n[nH]c1C(C)C

EC50 [1]: 212 nM
Structure (SMILES): O/N=C/[C@H]1O[C@@H](n2cc(Cc3ccc(C4CC4)cc3)c3c(Cl)cccc32)[C@H](O)[C@@H](O)[C@@H]1O

half-life [7]: 7 h
IC50 [8]: 2.1 nM
IC50 [9]: 15.9 nM
bioavailability [10]: 87%
Structure (SMILES): COc1ccc(Cc2cc([C@H]3O[C@@H](SC)[C@H](O)[C@@H](O)[C@@H]3O)ccc2Cl)cc1
Ratio IC50 (Homo sapiens): 7.6

Continued, molecule first:

Structure (SMILES): COC(=O)NNC[C@H]1O[C@@H](n2cc(Cc3ccc(C4CC4)cc3)c3c(Cl)cccc32)[C@H](O)[C@@H](O)[C@@H]1O
EC50 [1]: 63 nM

Structure (SMILES): CCOc1ccc(Cc2cc([C@H]3O[C@@H](SC)[C@H](O)[C@@H](O)[C@@H]3O)ccc2Cl)cc1
IC50 [2]: 1.8 nM

Structure (SMILES): CONC[C@H]1O[C@@H](n2cc(Cc3ccc(C4CC4)cc3)c3c(Cl)cccc32)[C@H](O)[C@@H](O)[C@@H]1O
EC50 [1]: 455 nM

Structure (SMILES): Cc1cc(O)c(C(=O)CCc2ccc3occc3c2)c(O[C@@H]2O[C@H](CO)[C@@H](O)[C@H](O)[C@H]2O)c1
EC50 [4]: 5.2 nM

Structure (SMILES): CC(=O)NNC[C@H]1O[C@@H](n2cc(Cc3ccc(C4CC4)cc3)c3c(Cl)cccc32)[C@H](O)[C@@H](O)[C@@H]1O
EC50 [5]: 37 nM
EC50 [1]: 33 nM

Structure (SMILES): CCOC(=O)OC[C@H]1O[C@@H](Oc2ccccc2Cc2ccc(OC)cc2)[C@H](O)[C@@H](O)[C@@H]1O [SERGLIFLOZIN ETABONATE]
Ki [6]: 151 nM

Structure (SMILES): O=C(N/N=C/[C@H]1O[C@@H](n2cc(Cc3ccc(C4CC4)cc3)c3c(Cl)cccc32)[C@H](O)[C@@H](O)[C@@H]1O)c1ccccc1
EC50 [1]: 258 nM
